Test results reported in the NIST ThermoML archive (doi:10.1021/je300377a).
Numbers after ± are expanded uncertainties.

Experiment: molar heat capacity at constant pressure
Settings: 101.33 kPa, Liquid

| Compound | molar heat capacity at constant pressure (265.04 K) [J/K/mol] | molar heat capacity at constant pressure (275.12 K) [J/K/mol] | molar heat capacity at constant pressure (295.03 K) [J/K/mol] | molar heat capacity at constant pressure (305.03 K) [J/K/mol] | molar heat capacity at constant pressure (315.07 K) [J/K/mol] | molar heat capacity at constant pressure (325.13 K) [J/K/mol] | molar heat capacity at constant pressure (335.04 K) [J/K/mol] | molar heat capacity at constant pressure (345.11 K) [J/K/mol] | molar heat capacity at constant pressure (355 K) [J/K/mol] | molar heat capacity at constant pressure (365.05 K) [J/K/mol] | molar heat capacity at constant pressure (375.09 K) [J/K/mol] | molar heat capacity at constant pressure (385.14 K) [J/K/mol] | molar heat capacity at constant pressure (355.01 K) [J/K/mol] | molar heat capacity at constant pressure (375.01 K) [J/K/mol] | molar heat capacity at constant pressure (275 K) [J/K/mol] | molar heat capacity at constant pressure (285.01 K) [J/K/mol] | molar heat capacity at constant pressure (295.01 K) [J/K/mol] | molar heat capacity at constant pressure (335.02 K) [J/K/mol] | molar heat capacity at constant pressure (345.02 K) [J/K/mol] | also measured |
| --- | --- | --- | --- | --- | --- | --- | --- | --- | --- | --- | --- | --- | --- | --- | --- | --- | --- | --- | --- | --- |
| CCCC[N+]1(C)CCCC1.O=S(=O)([N-]S(=O)(=O)C(F)(F)F)C(F)(F)F | 472.25 ± 230 | 484.93 ± 230 | 498.44 ± 240 | 507.31 ± 240 | 515.76 ± 250 | 524.63 ± 250 | 531.39 ± 260 | 539.84 ± 260 | 547.87 ± 260 | 554.62 ± 270 | 563.07 ± 270 | 576.17 ± 280 |  |  |  |  |  |  |  | molar heat capacity at constant pressure (285.06 K): 492.11 ± 240 J/K/mol |
| CCCCCCCC[N+]1(C)CCCC1.O=S(=O)([N-]S(=O)(=O)C(F)(F)F)C(F)(F)F |  |  |  |  | 658.44 ± 320 |  | 679.49 ± 330 | 690.02 ± 330 |  | 711.08 ± 340 |  | 732.13 ± 350 | 700.55 ± 340 | 721.6 ± 350 |  |  |  |  |  | molar heat capacity at constant pressure (265.06 K): 605.8 ± 290 J/K/mol; molar heat capacity at constant pressure (275.13 K): 616.33 ± 300 J/K/mol; molar heat capacity at constant pressure (285.07 K): 626.86 ± 300 J/K/mol; molar heat capacity at constant pressure (295.04 K): 636.43 ± 310 J/K/mol; molar heat capacity at constant pressure (305.04 K): 647.91 ± 310 J/K/mol; molar heat capacity at constant pressure (325.14 K): 668.97 ± 320 J/K/mol |
| CCCCCCCCn1cc[n+](C)c1.O=S(=O)([N-]S(=O)(=O)C(F)(F)F)C(F)(F)F |  |  |  |  |  |  |  |  |  |  |  |  |  | 720.34 ± 350 | 628.1 ± 300 | 636.18 ± 310 | 643.79 ± 310 | 675.65 ± 320 | 684.21 ± 330 | molar heat capacity at constant pressure (265.02 K): 621.44 ± 300 J/K/mol; molar heat capacity at constant pressure (305.02 K): 651.87 ± 310 J/K/mol; molar heat capacity at constant pressure (315.02 K): 660.43 ± 320 J/K/mol; molar heat capacity at constant pressure (325.02 K): 668.51 ± 320 J/K/mol; molar heat capacity at constant pressure (355.02 K): 694.67 ± 330 J/K/mol; molar heat capacity at constant pressure (360 K): 706.08 ± 340 J/K/mol; molar heat capacity at constant pressure (385.03 K): 737.93 ± 350 J/K/mol |
| CCCCCCCC[n+]1ccccc1.O=S(=O)([N-]S(=O)(=O)C(F)(F)F)C(F)(F)F [1-octylpyridinium bis((trifluoromethyl)sulfonyl)amide] | 582.55 ± 280 | 597.2 ± 290 | 620.82 ± 300 | 636.89 ± 310 | 652.95 ± 310 | 669.02 ± 320 |  |  | 707.76 ± 340 | 721.93 ± 350 | 738.47 ± 350 |  |  |  |  |  |  |  |  | molar heat capacity at constant pressure (285.05 K): 609.01 ± 290 J/K/mol; molar heat capacity at constant pressure (335.03 K): 681.77 ± 330 J/K/mol; molar heat capacity at constant pressure (345.1 K): 694.53 ± 330 J/K/mol; molar heat capacity at constant pressure (385.13 K): 755.95 ± 360 J/K/mol |
| CCCCCCCC[N+]1(CC)CCCCC1.O=S(=O)([N-]S(=O)(=O)C(F)(F)F)C(F)(F)F |  |  |  |  |  |  |  |  |  |  |  |  | 844.96 ± 410 | 882.44 ± 420 | 719.33 ± 350 | 730.47 ± 350 | 743.64 ± 360 | 814.56 ± 390 | 829.25 ± 400 | molar heat capacity at constant pressure (265.01 K): 703.63 ± 340 J/K/mol; molar heat capacity at constant pressure (305.01 K): 763.4 ± 370 J/K/mol; molar heat capacity at constant pressure (315.01 K): 782.14 ± 380 J/K/mol; molar heat capacity at constant pressure (325.01 K): 799.37 ± 380 J/K/mol; molar heat capacity at constant pressure (365 K): 868.26 ± 420 J/K/mol; molar heat capacity at constant pressure (385.02 K): 903.72 ± 430 J/K/mol |
